What all share (format): in vivo, human
Data set [1] in a line: Effect of ketoconazole 200 mg BID on PK of mifepristone 600 mg OD and metabolites, with food (Example 3). As to conditions: for concentrations on Day 17 compared with Day 12: Day 17: mifepristone 600 mg daily + ketoconazole 200 mg twice daily, Day 12: mifepristone alone; for Ratio % Test/Reference, AUC0-24 (geometric mean ratio) / Ratio % Test/Reference, Cmax (geometric mean ratio): Test: Day 17, 600 mg mifepristone OD + 200 mg ketoconazole BID, Reference: Day 12, 600 mg mifepristone OD; for effect of co-administration with ketoconazole on exposure: mifepristone 600 mg OD + ketoconazole 200 mg BID. The procedure: (§1) A single dose of ketoconazole was administered on Day −1.
(§2) The study was a two period study design.

Data set [2] in a line: Cross-study comparison of exposure to mifepristone and metabolites with historic 1200 mg OD mifepristone study (Example 3). The settings on record: Test: present study Day 17, 600 mg mifepristone OD + 200 mg ketoconazole BID; Reference: historic study Day 7, 1200 mg mifepristone OD alone; after 34% fat meal.
A short description of data set [3]: Effect of a 400 mg single dose of ketoconazole on PK of an 8-day regimen of 300 mg or 600 mg OD mifepristone, moderate fat breakfast (Example 2). The settings on record: mifepristone 300 or 600 mg OD. The protocol:
This was an open-label study in healthy male subjects. […] The 400 mg single dose of ketoconazole was given to all subjects on day 8.
METHODOLOGY: Twelve subjects were enrolled, six in Cohort 1 and 6 in Cohort 2.
(§3) Subjects were discharged on Day 11.
(§4) Subjects were discharged on Day 11. Subjects in both cohorts returned to study center on Day 13 for safety monitoring, collection of the 120-hour PK draw, and completion of the Termination Visit procedures, followed by discharge from the study. To the extent possible, any adverse events deemed study drug-related and that were ongoing at the time of discharge from the study were followed-up to resolution or until a determination was made that the unresolved event was stable.
DIAGNOSIS AND MAIN […] FOR INCLUSION: Healthy male volunteers between the ages of 18 to 45 years of age with a body mass index (BMI) ranging between 19 and 32 kg/m2 and a weight of at least 60 kg (132 lbs) were enrolled. Subjects had no clinically significant abnormal findings on the physical examination, ECG, blood pressure, heart rate, medical history, or clinical laboratory results during screening. The QTc interval at screening was less than 450 msec.
(§5) DURATION OF TREATMENT: Up to a total of 28 days, including up to 2 weeks screening, dosing on Days 1-8, safety observation, and PK sample collection through Day 13.
(§6) Descriptive statistics count, mean, median, standard deviation, minimum, maximum, and % coefficient of variation) were provided. Ketoconazole concentrations were listed and summarized. GM means of Cmax and total AUC were compared for the single dose in this study to the combined data of reported 400 mg single doses of ketoconazole of healthy subjects from the literature.

Data set [4] in a line: Safety assessment: adverse events, laboratory tests, ECG (Example 1). As to conditions: Example 1. The procedure: Subjects in both cohorts returned to the study center on Day 15 for safety monitoring, and completion of the Termination Visit procedures, followed by discharge from the study. Safety was assessed by spontaneously reported adverse events, physical examinations, and routine clinical laboratory tests. To the extent possible, any adverse events deemed study drug-related and that were ongoing at the time of discharge from the study were followed-up to resolution or until a determination is made that the unresolved event was stable.

The nature of data set [5]: Ketoconazole PK after a 400 mg single dose on Day 8 of mifepristone 300 or 600 mg OD (Example 2).
Description: as §3, §4, §5, §6

The nature of data set [6]: Effect of co-administration with mifepristone on ketoconazole PK (Example 3). As to conditions: Test: Day 17, 600 mg mifepristone OD + 200 mg ketoconazole BID; Reference: Day -1, 200 mg ketoconazole single dose. The protocol:
as §1, §2

Setting [7] is: single 400 mg ketoconazole dose on Day 8.

Molecules are shown by their SMILES. Entries after “also recorded” stand apart in the source; their conditions may differ.

`CC#C[C@]1(O)CC[C@H]2[C@@H]3CCC4=CC(=O)CCC4=C3[C@@H](c3ccc(NC)cc3)C[C@@]21C` [RU 42633, (8S,11R,13S,14S,17S)-17-hydroxy-13-methyl-11-[4-(methylamino)phenyl]-17-prop-1-ynyl-1,2,6,7,8,11,12,14,15,16-decahydrocyclopenta[a]phenanthren-3-one]: in data set [1], the “concentrations on Day 17 compared with Day 12” value is listed as “similar”; the “Ratio % Test/Reference, AUC0-24 (geometric mean ratio)” value is 102.33%; the “Ratio % Test/Reference, Cmax (geometric mean ratio)” value (from here on “Ratio % Test/Reference, Cmax”) is 105.73%; the “effect of co-administration with ketoconazole on exposure” value (shortened to “effect of co-administration”) is listed as “not affected by ketoconazole; also recorded: little change in exposure”. For the same compound, in data set [2], the “Ratio % Test/Ref, AUC0-24 (geometric mean ratio)” value was determined as 91.34% and the “Ratio % Test/Ref, Cmax (geometric mean ratio)” value (“Ratio % Test/Ref, Cmax” for short) is 96.31%.
Regarding `CC#C[C@]1(O)CC[C@H]2[C@@H]3CCC4=CC(=O)CCC4=C3[C@@H](c3ccc(N)cc3)C[C@@]21C` [RU 42848, (8S,11R,13S,14S,17S)-11-(4-aminophenyl)-17-hydroxy-13-methyl-17-prop-1-ynyl-1,2,6,7,8,11,12,14,15,16-decahydrocyclopenta[a]phenanthren-3-one], in data set [1], the “concentrations on Day 17 compared with Day 12” value is listed as “similar”; the “Ratio % Test/Reference, AUC0-24 (geometric mean ratio)” value was 94.88%; the “Ratio % Test/Reference, Cmax” value worked out at 95.48%; the “effect of co-administration” value is “not affected by ketoconazole; also recorded: little change in exposure”. Further, in data set [2], the “Ratio % Test/Ref, AUC0-24 (geometric mean ratio)” value was determined as 81.43% and the “Ratio % Test/Ref, Cmax” value came out at 82.45%.
With `CN(C)c1ccc([C@H]2C[C@@]3(C)[C@@H](CC[C@@]3(O)C#CCO)[C@@H]3CCC4=CC(=O)CCC4=C32)cc1` [RU 42698, (8S,11R,13S,14S,17S)-11-[4-(dimethylamino)phenyl]-17-hydroxy-17-(3-hydroxyprop-1-ynyl)-13-methyl-1,2,6,7,8,11,12,14,15,16-decahydrocyclopenta[a]phenanthren-3-one], the “mean metabolite exposure compared with mifepristone” value in data set [3] is “lower”. In addition, in data set [1], the “concentrations on Day 17 compared with Day 12” value is reported as “higher”; the “Ratio % Test/Reference, AUC0-24 (geometric mean ratio)” value came out at 166.86%; the “Ratio % Test/Reference, Cmax” value is recorded as 169.13%; the “effect of co-administration” value is given as “increased by ketoconazole”. Also, the “mean increase in exposure” value in data set [1] (co-administration with ketoconazole 200 mg BID, mifepristone 600 mg OD) is “approximately 70%”. Moreover, in data set [2], the “Ratio % Test/Ref, AUC0-24 (geometric mean ratio)” value is 118.18% and the “Ratio % Test/Ref, Cmax” value came to 116.55%.
`CC(=O)N1CCN(c2ccc(OCC3COC(Cn4ccnc4)(c4ccc(Cl)cc4Cl)O3)cc2)CC1` (centres unmarked) [Ketoconazole, 1-acetyl-4-[4-[[2-(2,4-dichlorophenyl)-2-[(1H-imidazol-1-yl)-methyl]-1,3-dioxolan-4-yl]methoxy]phenyl]piperazine]: the “TEAEs considered by the investigator to be related to the drug” value in data set [4] is reported as “One TEAE of insomnia”. For the same compound, the “ketoconazole half-life on either mifepristone regimen” value in data set [5] (single 400 mg dose on Day 8, mifepristone 300 vs 600 mg OD) is listed as “not appreciably different”. In addition, in data set [5] (setting [7]), the “ketoconazole AUCinf higher on 600 mg OD relative to 300 mg OD mifepristone regimen” value is listed as 36% and the “ketoconazole Cmax higher on 600 mg OD relative to 300 mg OD mifepristone regimen” value amounted to 37%. In data set [6], the “Ratio % Test/Reference, AUC (geometric mean ratio)” value was 365.36% and the “Ratio % Test/Reference, Cmax” value is 252.71%.

The values are drawn from patent US10842800B2, “Concomitant administration of glucocorticoid receptor modulators and CYP3A inhibitors” (Corcept Therapeutics, Inc., priority 2017, dated 2020).
